Measured values published in ChEMBL document CHEMBL1201862, “PubChem BioAssay data set” (2004).
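Results reflect a 48-hour exposure of cells in 96-well plates to compound at five concentrations. GI50 is the concentration that inhibits growth by half.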 Calls of active or inactive are those of the source. Rule as the data show it: active = GI50 up to about 1.1 µM and inactive = higher.

Assays:
Experiment in all cases: NCI-60 cell line screen, 48 h
MDA-MB-435 = system: MDA-MB-435
UO-31 = system: UO-31
RXF 393 = system: RXF 393
786-0 = system: 786-0
LOX IMVI = system: LOX IMVI
HT-29 = system: HT-29
TK-10 = system: TK-10
MCF7 = system: MCF7
NCI-H23 = system: NCI-H23
MDA-MB-231 = system: MDA-MB-231
SK-OV-3 = system: SK-OV-3
COLO 205 = system: COLO 205
Hs-578T = system: Hs-578T
OVCAR-5 = system: OVCAR-5
SW-620 = system: SW-620
M14 = system: M14
Malme-3M = system: Malme-3M
SNB-75 = system: SNB-75
KM12 = system: KM12
T47D = system: T47D

Measured: GI50

Cc1c2c(n3c(nc4ccccc43)c1C#N)N(c1ccc(Cl)cc1)CC2
inactive: MDA-MB-435 > 100 µM | UO-31 > 100 µM | RXF 393 > 100 µM | 786-0 > 100 µM | LOX IMVI > 100 µM | HT-29 > 100 µM | TK-10 > 100 µM | MCF7 > 100 µM | NCI-H23 > 100 µM | MDA-MB-231 > 100 µM | SK-OV-3 96.4 µM | COLO 205 > 100 µM | Hs-578T > 100 µM | OVCAR-5 > 100 µM | SW-620 > 100 µM | M14 > 100 µM | Malme-3M > 100 µM | SNB-75 > 100 µM

Cc1c(S(=O)(=O)c2ccccc2)c(N)n(Cc2ccccc2)c1C
inactive: KM12 > 100 µM | MDA-MB-435 > 100 µM | UO-31 > 100 µM | RXF 393 76.6 µM | 786-0 > 100 µM | HT-29 > 100 µM | TK-10 > 100 µM | MCF7 > 100 µM | NCI-H23 > 100 µM | MDA-MB-231 > 100 µM | SK-OV-3 > 100 µM | COLO 205 > 100 µM | Hs-578T 53.1 µM | OVCAR-5 > 100 µM | SW-620 > 100 µM | M14 7.08 µM | Malme-3M > 100 µM | SNB-75 > 100 µM

C[n+]1c(-c2ccc(/C=N\NC(=O)c3ccc(C(=O)N/N=C/c4ccc(-c5cn6ccsc6[n+]5C)cc4)cc3)cc2)cn2ccsc21
inactive: KM12 23 µM | MDA-MB-435 15.8 µM | UO-31 15.2 µM | RXF 393 22.8 µM | 786-0 16.6 µM | HT-29 15.8 µM | TK-10 19.9 µM | MCF7 20.2 µM | NCI-H23 17.8 µM | MDA-MB-231 21.4 µM | SK-OV-3 46.5 µM | COLO 205 25 µM | Hs-578T 19.9 µM | OVCAR-5 17.3 µM | SW-620 18.5 µM | M14 17.8 µM | Malme-3M 21 µM | SNB-75 23.3 µM

C=C(C(=O)OC)[C@@H]1C[C@@H](OC(C)=O)C2=C[C@H](C[C@@]3(C)O[C@@H]3C3=CC(C)=C(O3)[C@H]1OC(C)=O)OC2=O [BIPINNATIN I]
inactive: KM12 19.8 µM | MDA-MB-435 16.8 µM | UO-31 16 µM | RXF 393 12 µM | 786-0 14.7 µM | LOX IMVI 16.3 µM | HT-29 6.24 µM | TK-10 16 µM | MCF7 8.28 µM | NCI-H23 14.5 µM | T47D 12.7 µM | MDA-MB-231 20.9 µM | SK-OV-3 37.5 µM | COLO 205 10.8 µM | OVCAR-5 17.9 µM | SW-620 4.71 µM | M14 14.8 µM | Malme-3M 13.3 µM | SNB-75 26.1 µM
